Measurements published in US20240279220A1, “INDOLE COMPOUNDS AND METHODS OF USE” (Genzyme Corporation, priority 2021, published 2024).

System: NBD1/3D
Assay: Aggregation analysis using differential static light scattering (DSLS), NBD1 thermal stability
Assay type: binding, Human
Conditions: ΔTagg versus DMSO control; compound at 100 μM
In short: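 Thermal stabilisation reported as ΔTagg, i.e. aggregation temperature relative to averaged DMSO wells. Tagg came from the inflection of differential static light scattering imaged 25–70 °C while NBD1 (0.2 mg/ml, Tris pH 7.6 buffer containing ATP, MgCl2, DTT, glycerol) was ramped 1 °C/min.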

Row | Structure (SMILES) | DSLS NBD1/3D Human Stability delta-T (° C.) @ 100 (μM)
1 | O=C(O)CCc1cccc(Cc2c[nH]c(-c3cc(Oc4c(F)cc5[nH]ccc5c4Cl)ccc3F)n2)c1F [Example 111, 3-(3-((2-(5-((4-chloro-6-fluoro-1H-indol-5-yl)oxy)-2-fluorophenyl)-1H-imidazol-4-yl)methyl)-2-fluorophenyl)propanoic acid] | B (B: 5-10° C.)
2 | Cc1c(Oc2ccc(F)c(-c3nc(Cc4cccc(CCC(=O)O)c4F)c[nH]3)c2)c(F)c(F)c2[nH]ccc12 [Example 112, 3-(3-((2-(5-((6,7-difluoro-4-methyl-1H-indol-5-yl)oxy)-2-fluorophenyl)-1H-imidazol-4-yl)methyl)-2-fluorophenyl)propanoic acid] | B (B: 5-10° C.)
3 | O=C(O)CCc1cc(F)cc(Cc2cnc(-c3cc(Oc4c(F)cc5[nH]ccc5c4CC(F)(F)F)ccc3F)[nH]2)c1 [Example 113, 3-(3-fluoro-5-((2-(2-fluoro-5-((6-fluoro-4-(2,2,2-trifluoroethyl)-1H-indol-5-yl)oxy)phenyl)-1H-imidazol-5-yl)methyl)phenyl)propanoic acid] | B (B: 5-10° C.)
4 | O=C(O)CCc1cc(F)cc(Cc2c[nH]c(-c3cc(Oc4c(F)cc5[nH]ccc5c4F)ccc3F)n2)c1 [Example 114, 3-(3-((2-(5-((4,6-difluoro-1H-indol-5-yl)oxy)-2-fluorophenyl)-1H-imidazol-4-yl)methyl)-5-fluorophenyl)propanoic acid] | B (B: 5-10° C.)
5 | Cc1c(Oc2ccc(F)c(-c3ncc(Cc4cccc(CCC(=O)O)c4)[nH]3)c2)c(F)cc2[nH]ccc12 [Example 115, 3-(3-((2-(2-fluoro-5-((6-fluoro-4-methyl-1H-indol-5-yl)oxy)phenyl)-1H-imidazol-5-yl)methyl)phenyl)propanoic acid] | B (B: 5-10° C.)
6 | Cc1c(Oc2ccc(F)c(-c3ncc(Cc4cccc(CCC(=O)O)c4F)[nH]3)c2)ccc2[nH]ccc12 [Example 116, 3-(2-fluoro-3-((2-(2-fluoro-5-((4-methyl-1H-indol-5-yl)oxy)phenyl)-1H-imidazol-5-yl)methyl)phenyl)propanoic acid] | B (B: 5-10° C.)
7 | O=C(O)CCc1cccc(Cc2c[nH]c(-c3cc(Oc4c(F)cc5[nH]ccc5c4CC(F)F)ccc3F)n2)c1 [Example 117, 3-(3-((2-(5-((4-(2,2-difluoroethyl)-6-fluoro-1H-indol-5-yl)oxy)-2-fluorophenyl)-1H-imidazol-4-yl)methyl)phenyl)propanoic acid] | B (B: 5-10° C.)
8 | N#Cc1c(CCC(=O)O)cccc1Cc1cnc(-c2cc(Oc3c(F)cc4[nH]ccc4c3F)ccc2F)[nH]1 [Example 122, 3-(2-cyano-3-((2-(5-((4,6-difluoro-1H-indol-5-yl)oxy)-2-fluorophenyl)-1H-imidazol-5-yl)methyl)phenyl)propanoic acid] | B (B: 5-10° C.)
9 | NC(=O)CCc1cccc(Cc2c[nH]c(-c3cc(Oc4c(F)cc5[nH]ccc5c4F)ccc3F)n2)c1 [Example 127, 3-(3-((2-(5-((4,6-Difluoro-1H-indol-5-yl)oxy)-2-fluorophenyl)-1H-imidazol-4-yl)methyl)phenyl)propanamide] | C (C: ≤5° C.)
10 | NCc1c(CCC(=O)O)cccc1Cc1cnc(-c2cc(Oc3c(F)cc4[nH]ccc4c3F)ccc2F)[nH]1 [Example 141, 3-(2-(Aminomethyl)-3-((2-(5-((4,6-difluoro-1H-indol-5-yl)oxy)-2-fluorophenyl)-1H-imidazol-5-yl)methyl)phenyl)propanoic acid] | C (C: ≤5° C.)
11 | CC1CC(c2cccc(CCC(=O)O)c2)(c2cnc(-c3cc(Oc4c(F)cc5[nH]ccc5c4F)ccc3F)[nH]2)CC(C)O1 (centres unmarked) [Example 142, 3-(3-(4-(2-(5-((4,6-Difluoro-1H-indol-5-yl)oxy)-2-fluorophenyl)-1H-imidazol-5-yl)-2,6-dimethyltetrahydro-2H-pyran-4-yl)phenyl)propanoic acid] | A (A: T ≥ 10° C.)
12 | O=C(O)CCc1cccc(C2(c3cnc(-c4cc(Oc5c(F)cc6[nH]ccc6c5F)ccc4F)[nH]3)CC2)c1 [Example 143, 3-(3-(1-(2-(5-((4,6-difluoro-1H-indol-5-yl)oxy)-2-fluorophenyl)-1H-imidazol-5-yl)cyclopropyl)phenyl)propanoic acid] | B (B: 5-10° C.)
13 | Cc1c(Oc2ccc(F)c(-c3ncc(C(C)(C)c4cccc(CCC(=O)O)c4)[nH]3)c2)c(F)cc2[nH]ccc12 [Example 144, 3-(3-(2-(2-(2-fluoro-5-((6-fluoro-4-methyl-1H-indol-5-yl)oxy)phenyl)-1H-imidazol-5-yl)propan-2-yl)phenyl)propanoic acid] | B (B: 5-10° C.)
14 | CC(C)(c1cccc(CCC(=O)O)c1)c1cnc(-c2cc(Oc3c(F)cc4[nH]ccc4c3F)ccc2F)[nH]1 [Example 145, 3-(3-(2-(2-(5-((4,6-difluoro-1H-indol-5-yl)oxy)-2-fluorophenyl)-1H-imidazol-5-yl)propan-2-yl)phenyl)propanoic acid] | B (B: 5-10° C.)
15 | Cc1c(Oc2ccc(F)c(-c3ncc(C4(c5cccc(CCC(=O)O)c5)CCCC4)[nH]3)c2)c(F)cc2[nH]ccc12 [Example 146, 3-(3-(1-(2-(2-fluoro-5-((6-fluoro-4-methyl-1H-indol-5-yl)oxy)phenyl)-1H-imidazol-5-yl)cyclopentyl)phenyl)propanoic acid] | B (B: 5-10° C.)
16 | Cc1c(Oc2ccc(F)c(-c3nc(C4(c5cccc(CCC(=O)O)c5)CCCCC4)c[nH]3)c2)c(F)cc2[nH]ccc12 [Example 147, 3-(3-(1-(2-(2-fluoro-5-((6-fluoro-4-methyl-1H-indol-5-yl)oxy)phenyl)-1H-imidazol-4-yl)cyclohexyl)phenyl)propanoic acid] | B (B: 5-10° C.)
17 | Cc1c(Oc2ccc(F)c(-c3ncc(C4(c5cccc(CCC(=O)O)c5)CCOCC4)[nH]3)c2)c(F)cc2[nH]ccc12 [Example 148, 3-(3-(4-(2-(2-fluoro-5-((6-fluoro-4-methyl-1H-indol-5-yl)oxy)phenyl)-1H-imidazol-5-yl)tetrahydro-2H-pyran-4-yl)phenyl)propanoic acid] | A (A: T ≥ 10° C.)
18 | Cc1c(Oc2ccc(F)c(-c3ncc(C4(c5cccc(CCC(=O)O)c5)CC(C)OC(C)C4)[nH]3)c2)c(F)cc2[nH]ccc12 (centres unmarked) [Example 149, 3-(3-(4-(2-(2-fluoro-5-((6-fluoro-4-methyl-1H-indol-5-yl)oxy)phenyl)-1H-imidazol-5-yl)-2,6-dimethyltetrahydro-2H-pyran-4-yl)phenyl)propanoic acid] | B (B: 5-10° C.)
19 | O=C(O)CCc1cccc(C2(c3cnc(-c4cc(Oc5c(F)cc6[nH]ccc6c5F)ccc4F)[nH]3)CCOC2)c1 (centres unmarked) [Example 150, 3-(3-(3-(2-(5-((4,6-difluoro-1H-indol-5-yl)oxy)-2-fluorophenyl)-1H-imidazol-5-yl)tetrahydrofuran-3-yl)phenyl)propanoic acid] | A (A: T ≥ 10° C.)
20 | Cc1c(Oc2ccc(F)c(-c3ncc(C4(c5cccc(CCC(=O)O)c5)CCOC4)[nH]3)c2)c(F)cc2[nH]ccc12 (centres unmarked) [Example 153, 3-(3-(3-(2-(2-fluoro-5-((6-fluoro-4-methyl-1H-indol-5-yl)oxy)phenyl)-1H-imidazol-5-yl)tetrahydrofuran-3-yl)phenyl)propanoic acid] | A (A: T ≥ 10° C.)
21 | Cc1c(Oc2ccc(F)c(-c3ncc(C4(c5cc(F)cc(CCC(=O)O)c5)CC4)[nH]3)c2)c(F)cc2[nH]ccc12 [Example 156, 3-(3-fluoro-5-(1-(2-(2-fluoro-5-((6-fluoro-4-methyl-1H-indol-5-yl)oxy)phenyl)-1H-imidazol-5-yl)cyclopropyl)phenyl)propanoic acid] | B (B: 5-10° C.)
22 | CC(C)(c1cnc(-c2cc(Oc3c(F)c(F)c4[nH]ccc4c3F)ccc2F)[nH]1)c1cccc(CCC(=O)O)c1F [Example 157, 3-(2-fluoro-3-(2-(2-(2-fluoro-5-((4,6,7-trifluoro-1H-indol-5-yl)oxy)phenyl)-1H-imidazol-5-yl)propan-2-yl)phenyl)propanoic acid] | B (B: 5-10° C.)
23 | Cc1c(Oc2ccc(F)c(-c3nc(C(C)(C)c4cccc(CCC(=O)O)c4F)c[nH]3)c2)c(F)c(F)c2[nH]ccc12 [Example 158, 3-(3-(2-(2-(5-((6,7-difluoro-4-methyl-1H-indol-5-yl)oxy)-2-fluorophenyl)-1H-imidazol-4-yl)propan-2-yl)-2-fluorophenyl)propanoic acid] | B (B: 5-10° C.)
24 | CC(C)(c1cnc(-c2cc(Oc3c(F)cc4[nH]ccc4c3F)ccc2F)[nH]1)c1cccc(CCC(=O)O)c1F [Example 160, 3-(3-(2-(2-(5-((4,6-difluoro-1H-indol-5-yl)oxy)-2-fluorophenyl)-1H-imidazol-5-yl)propan-2-yl)-2-fluorophenyl)propanoic acid] | B (B: 5-10° C.)
25 | Cc1c(Oc2ccc(F)c(-c3ncc(C(C)(C)c4cccc(CCC(=O)O)c4F)[nH]3)c2)ccc2[nH]ccc12 [Example 161, 3-(2-fluoro-3-(2-(2-(2-fluoro-5-((4-methyl-1H-indol-5-yl)oxy)phenyl)-1H-imidazol-5-yl)propan-2-yl)phenyl)propanoic acid] | B (B: 5-10° C.)
26 | CC(C)(c1cnc(-c2cc(Oc3ccc4[nH]ccc4c3F)ccc2F)[nH]1)c1cccc(CCC(=O)O)c1F [Example 162, 3-(2-fluoro-3-(2-(2-(2-fluoro-5-((4-fluoro-1H-indol-5-yl)oxy)phenyl)-1H-imidazol-5-yl)propan-2-yl)phenyl)propanoic acid] | B (B: 5-10° C.)
